According to US11053235B2, “Substituted 1,4-dihydropyrimidines for the treatment of HBV infection or HBV-induced diseases” (Janssen Sciences Ireland Unlimited Company, priority 2018, dated 2021):

How the values were obtained:
[1] = Cytotoxicity determination in HepG2.2.15 cells (CCK-8); format: cell-based; conditions: human, 6 days treatment, CCK-8, highest concentration 100 uM
In short: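 HepG2.2.15 cells seeded at 5,000 cells/well in 2% FBS medium and exposed to compounds for 6 days (medium refreshed once), 8 three-fold dilutions from 100 uM. Viability read by CCK-8 after 2.5 h at 37 °C, absorbance 450 nm with 630 nm reference; CC50 calculated.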

[2] = test system: HBV; test: Anti-viral assay in HepG2.2.15 cells: HBV inhibitory activity (HBV DNA in culture medium by q-PCR); format: cell-based; conditions: Hepatitis B virus, HepG2.2.15, 144 h, HepG2.2.15 cells, 6 days treatment, HBV DNA in culture medium by q-PCR, highest concentration 10 uM; read-out: EC50
In short: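 HepG2.2.15 cells seeded at 40,000/well in 2% FBS medium, dosed next day for 6 days (medium refreshed once midway); 8-point 3-fold dilutions from 10 uM top. HBV DNA in culture medium extracted and quantified by q-PCR; EC50 calculated from dose-response.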

Compound	CC50 at 6 days [1] [µM]	EC50 [2] [µM]
COC(=O)C1=C(C2CCN(c3nccc(CC(=O)O)n3)CC2)NC(c2nccs2)=NC1c1ccc(F)cc1Cl (single isomer, unassigned) [II-13-A, 2-(2-(4-(6-(2-chloro-4-fluorophenyl)-5-(methoxycarbonyl)-2-(thiazol-2-yl)-3,6-dihydropyrimidin-4-yl)piperidin-1-yl)pyrimidin-4-yl)acetate]	24.4	0.19
COC(=O)C1=C(C2CCN(c3ncc(C)c(C(=O)O)n3)CC2)NC(c2nccs2)=NC1c1ccc(F)cc1Cl (single isomer, unassigned) [II-14-A, 2-(4-(6-(2-Chloro-4-fluorophenyl)-5-(methoxycarbonyl)-2-(thiazol-2-yl)-3,6-dihydropyrimidin-4-yl)piperidin-1-yl)-5-methylpyrimidine-4-carboxylic Acid]	32.1	0.0081
COC(=O)C1=C(C2CCN(c3ncc(CC(=O)O)cn3)CC2)NC(c2nccs2)=NC1c1ccc(F)cc1Cl (single isomer, unassigned) [II-15-A, 2-(2-(4-(6-(2-Chloro-4-fluorophenyl)-5-(methoxycarbonyl)-2-(thiazol-2-yl)-3,6-dihydropyrimidin-4-yl)piperidin-1-yl)pyrimidin-5-yl)acetic Acid]	14	0.0055
COC(=O)C1=C(C2CCN(c3ncc(C(=O)O)c(C)n3)CC2)NC(c2nccs2)=NC1c1ccc(F)cc1Cl (single isomer, unassigned) [II-16-B, 2-(4-(6-(2-Chloro-4-fluorophenyl)-5-(methoxycarbonyl)-2-(thiazol-2-yl)-3,6-dihydropyrimidin-4-yl)piperidin-1-yl)-4-methylpyrimidine-5-carboxylic Acid]	7.48	0.0069
COC(=O)C1=C(C2CCN(c3ncc(C(=O)O)cn3)CC2)NC(c2nccs2)=NC1c1ccc(F)cc1Cl (single isomer, unassigned) [II-17-B, 2-(4-(6-(2-chloro-4-fluorophenyl)-5-(methoxycarbonyl)-2-(thiazol-2-yl)-3,6-dihydropyrimidin-4-yl)piperidin-1-yl)pyrimidine-5-carboxylic Acid]	> 100	0.014
COC(=O)C1=C(C2CCN(c3nc(C(=O)O)co3)CC2)NC(c2nccs2)=NC1c1ccc(F)cc1Cl (single isomer, unassigned) [II-18-B, 2-(4-(6-(2-Chloro-4-fluorophenyl)-5-(methoxycarbonyl)-2-(thiazol-2-yl)-3,6-dihydropyrimidin-4-yl)piperidin-1-yl)oxazole-4-carboxylic Acid]	70	0.089
COC(=O)C1=C(C2CCN(c3ncc(C(=O)O)s3)CC2)NC(c2nccs2)=NC1c1ccc(F)cc1Cl (single isomer, unassigned) [II-19-A, 2-(4-(6-(2-Chloro-4-fluorophenyl)-5-(methoxycarbonyl)-2-(thiazol-2-yl)-3,6-dihydropyrimidin-4-yl)piperidin-1-yl)thiazole-5-carboxylic Acid]	19.3	0.0064
CCOC(=O)C1=C(C2CCN(c3ncc(C)c(C(=O)O)n3)CC2)NC(c2nccs2)=NC1c1ccc(F)cc1Cl (single isomer, unassigned) [II-20-B, 2-(4-(6-(2-Chloro-4-fluorophenyl)-5-(ethoxycarbonyl)-2-(thiazol-2-yl)-3,6-dihydropyrimidin-4-yl)piperidin-1-yl)-5-methylpyrimidine-4-carboxylic Acid]	16.8	0.015
CCOC(=O)C1=C(C2CCN(c3ncc(CC(=O)O)cn3)CC2)NC(c2nccs2)=NC1c1ccc(F)cc1Cl (single isomer, unassigned) [II-21-B, 2-(2-(4-(6-(2-Chloro-4-fluorophenyl)-5-(ethoxycarbonyl)-2-(thiazol-2-yl)-3,6-dihydropyrimidin-4-yl)piperidin-1-yl)pyrimidin-5-yl)acetic Acid]	7.11	0.0062
CCOC(=O)C1=C(C2CCN(c3ncc(C)c(C(=O)O)n3)CC2)NC(c2nccs2)=NC1c1cccc(F)c1Cl (single isomer, unassigned) [II-22-B, 2-(4-(6-(2-Chloro-3-fluorophenyl)-5-(ethoxycarbonyl)-2-(thiazol-2-yl)-3,6-dihydropyrimidin-4-yl)piperidin-1-yl)-5-methylpyrimidine-4-carboxylic Acid]	11.2	0.015
CCOC(=O)C1=C(C2CCN(c3ncc(CC(=O)O)cn3)CC2)NC(c2nccs2)=NC1c1cccc(F)c1Cl (single isomer, unassigned) [II-23-B, 2-(2-(4-(6-(2-Chloro-3-fluorophenyl)-5-(ethoxycarbonyl)-2-(thiazol-2-yl)-3,6-dihydropyrimidin-4-yl)piperidin-1-yl)pyrimidin-5-yl)acetic Acid]	3.88	< 0.0046
COC(=O)C1=C(C2CCN(c3ncc([C@]4(O)C[C@@H](C(=O)O)C4)cn3)CC2)NC(c2nccs2)=NC1c1ccc(F)c(F)c1Cl (single isomer, unassigned) [II-24-B, (cis)-3-(2-(4-(6-(2-chloro-3,4-difluorophenyl)-5-(methoxycarbonyl)-2-(thiazol-2-yl)-3,6-dihydropyrimidin-4-yl)piperidin-1-yl)pyrimidin-5-yl)-3-hydroxycyclobutanecarboxylic Acid]	11	< 0.0046
COC(=O)C1=C(C2CCN(c3ncc(C(=O)O)o3)CC2)NC(c2nccs2)=NC1c1ccc(F)c(F)c1Cl (single isomer, unassigned) [II-25-B, 2-(4-(6-(2-Chloro-3,4-difluorophenyl)-5-(methoxycarbonyl)-2-(thiazol-2-yl)-3,6-dihydropyrimidin-4-yl)piperidin-1-yl)oxazole-5-carboxylic Acid]	18.1	0.054
COC(=O)C1=C(C2CCN(c3ncc(Cl)c(C(=O)O)n3)CC2)NC(c2nccs2)=NC1c1ccc(F)c(F)c1Cl (single isomer, unassigned) [II-26-B, 5-Chloro-2-(4-(6-(2-chloro-3,4-difluorophenyl)-5-(methoxycarbonyl)-2-(thiazol-2-yl)-3,6-dihydropyrimidin-4-yl)piperidin-1-yl)pyrimidine-4-carboxylic Acid]	11.1	0.045
COC(=O)C1=C(C2CCN(c3ncc(C)c(C(=O)O)n3)CC2)NC(c2nccs2)=NC1c1ccc(F)c(F)c1Cl (single isomer, unassigned) [II-27-B, 2-(4-(6-(2-Chloro-3,4-difluorophenyl)-5-(methoxycarbonyl)-2-(thiazol-2-yl)-3,6-dihydropyrimidin-4-yl)piperidin-1-yl)-5-methylpyrimidine-4-carboxylic Acid]	20.2	0.0055
COC(=O)C1=C(C2CCN(c3ncc(CC(=O)O)c(C)n3)CC2)NC(c2nccs2)=NC1c1ccc(F)c(F)c1Cl (single isomer, unassigned) [II-28-B, 2-(2-(4-(6-(2-Chloro-3,4-difluorophenyl)-5-(methoxycarbonyl)-2-(thiazol-2-yl)-3,6-dihydropyrimidin-4-yl)piperidin-1-yl)-4-methylpyrimidin-5-yl)acetic Acid]	5.33	< 0.0046
COC(=O)C1=C(C2CCN(c3ncc(CC(=O)O)cn3)CC2)NC(c2nccs2)=NC1c1ccc(F)c(F)c1Cl (single isomer, unassigned) [II-29-B, 2-(2-(4-(6-(2-Chloro-3,4-difluorophenyl)-5-(methoxycarbonyl)-2-(thiazol-2-yl)-3,6-dihydropyrimidin-4-yl)piperidin-1-yl)pyrimidin-5-yl)acetic Acid]	9.46	< 0.0046
COC(=O)C1=C(C2CCN(c3ncc(C(=O)O)s3)CC2)NC(c2nccs2)=NC1c1ccc(F)c(F)c1Cl (single isomer, unassigned) [II-30-B, 2-(4-(6-(2-Chloro-3,4-difluorophenyl)-5-(methoxycarbonyl)-2-(thiazol-2-yl)-3,6-dihydropyrimidin-4-yl)piperidin-1-yl)thiazole-5-carboxylic Acid]	16	0.0072
COC(=O)C1=C(C2CCN(c3nc(C(F)(F)F)c(C(=O)O)s3)CC2)NC(c2nccs2)=NC1c1ccc(F)c(F)c1Cl (single isomer, unassigned) [II-31-B, 2-(4-(6-(2-Chloro-3,4-difluorophenyl)-5-(methoxycarbonyl)-2-(thiazol-2-yl)-3,6-dihydropyrimidin-4-yl)piperidin-1-yl)-4-(trifluoromethyl)thiazole-5-carboxylic Acid]	2.61	0.025
COC(=O)C1=C(C2CCN(c3nc(C(=O)O)cs3)CC2)NC(c2nccs2)=NC1c1ccc(F)c(F)c1Cl (single isomer, unassigned) [II-32-B, 2-(4-(6-(2-Chloro-3,4-difluorophenyl)-5-(methoxycarbonyl)-2-(thiazol-2-yl)-3,6-dihydropyrimidin-4-yl)piperidin-1-yl)thiazole-4-carboxylic Acid]	11.1	0.046
COC(=O)C1=C(C2CCN(c3nc(C(=O)O)co3)CC2)NC(c2nccs2)=NC1c1ccc(F)c(F)c1Cl (single isomer, unassigned) [II-33-B, 2-(4-(6-(2-Chloro-3,4-difluorophenyl)-5-(methoxycarbonyl)-2-(thiazol-2-yl)-3,6-dihydropyrimidin-4-yl)piperidin-1-yl)oxazole-4-carboxylic Acid]	18.6	0.045
CCOC(=O)C1=C(C2CCN(c3ccc(C(=O)O)cc3)CC2)NC(c2nccs2)=NC1c1ccc(F)c(F)c1Cl (single isomer, unassigned) [II-35-A, 4-(4-(6-(2-Chloro-3,4-difluorophenyl)-5-(ethoxycarbonyl)-2-(thiazol-2-yl)-3,6-dihydropyrimidin-4-yl)piperidin-1-yl)benzoic Acid]	3.96	0.02
